This assay has as its target SSTR5 (Homo sapiens, UniProt P35346). The assay can be described thus: Radioligand binding, displacement of 125I-Tyr11-SRIF-14. Details: host or cells: Chem-1 (Rat ChemiSCREEN) cells, membrane preparation. Summed up: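 Assays ran at 25 °C in 25 mM HEPES pH 7.4 with 5 mM MgCl2, 1 mM CaCl2, 0.1% BSA and 1% DMSO. Filter-bound radioactivity gave IC50 by nonlinear least-squares regression.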
For orientation: Loss of bound radioactivity is the signal in a displacement assay; it reports binding, not function.

In general, IC50 refers to the concentration that gives 50% inhibition. Higher therefore signals a need for much substance. As a reminder, the Ki is a measure of affinity in units of concentration, obtained from inhibition or displacement. High values mean a looser hold on the target, low ones a stronger hold on the target.

*1 amine or outer side, *2 acyl side, *3 side chain or, on linkers, in order; H or OH if unused. Where a SMILES comes first, the peptide text is derived from it. Bridges are numbered along the chain shown (N, C = ends). [ ]: non-standard residue; d: D form. The star is where a group is joined. DOTA = O=C(O)CN1CCN(CC(=O)O)CCN(CC(=O)*)CCN(CC(=O)O)CC1; N(2-mercaptoethyl)Gly = O=C(CN(CCS[*:3])[*:1])[*:2] Where only a bound is given, the exact number is not on record here.

Sequence of SSTR5 (P35346 whole entry): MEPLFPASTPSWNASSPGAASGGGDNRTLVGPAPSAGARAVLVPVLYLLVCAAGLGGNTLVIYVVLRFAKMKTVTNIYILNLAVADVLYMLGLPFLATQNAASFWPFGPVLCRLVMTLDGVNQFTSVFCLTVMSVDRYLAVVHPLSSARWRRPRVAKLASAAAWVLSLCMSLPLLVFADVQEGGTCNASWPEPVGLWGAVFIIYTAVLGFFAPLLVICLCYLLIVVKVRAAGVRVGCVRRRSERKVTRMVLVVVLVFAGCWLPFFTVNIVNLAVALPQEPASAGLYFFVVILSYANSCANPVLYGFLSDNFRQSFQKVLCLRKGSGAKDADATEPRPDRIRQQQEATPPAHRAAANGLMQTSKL

On to `C[C@@H](O)[C@@H]1NC(=O)[C@H](CCCCN)NC(=O)[C@@H](Cc2c[nH]c3ccccc23)NC(=O)[C@H](Cc2ccccc2)NC(=O)[C@@H](NC(=O)[C@H](CCCNC(=N)N)NC(=O)[C@@H](Cc2ccccc2)NC(=O)CN2CCN(CC(=O)O)CCN(CC(=O)O)CCN(CC(=O)O)CC2)CSSCCN(CC(N)=O)C(=O)[C@H](Cc2ccccc2)NC1=O` [SEQ ID NO: 3, DOTA-D-Phe^1-Arg^2-Cys^3-Phe^4-D-Trp^5-Lys^6-Thr^7-Phe^8-NTEG^9-NH2 cyclo 3-9] ({DOTA}-[dF]RCF[dW]KTF[N(2-mercaptoethyl)Gly]-NH2; disulfide 3-9), for which the IC50 is more than 1000 nM and the Ki was found to be 660 nM. For the same compound, the “Hill coefficient (nH)” value (hSSTR-5) worked out at 1.57.

Values taken from patent US20240165282A1, “CONFORMATIONAL CONSTRAINED SOMATOSTATIN RECEPTOR 3 PEPTIDE LIGANDS AND THEIR CONJUGATES AND USES THEREOF” (STARGET PHARMA LTD., priority 2021, published 2024).
